Measured values published in patent US7491794B2, “Macrocyclic compounds as inhibitors of viral replication” (Intermune, Inc., priority 2003, dated 2009).
Where two headings read alike, the source gives them in different places.

Assays:
[1] = test system: HCV sub-genomic replicon, GS4.3; assay: Quantitation by ELISA of NPTII in the HCV sub-genomic replicon, GS4.3, Section B; assay type: cell-based; conditions: Hepatitis C virus, read-out: Replicon EC50
In short: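 NPTII marker protein in lysates was quantified by ELISA read at 450 nm after 72 h inhibitor exposure (3-fold series, final DMSO 1%, G418-free medium) of HuH-7 cells stably harbouring the subgenomic HCV replicon. Values relative to DMSO-treated controls; 4-parameter curves gave EC50.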

[2] = target: T1, NS3-NS4A protease (Hepatitis C virus genotype 1a, UniProt P27958); assay: NS3-NS4A protease assay (NS3 inhibition assay, RETS1 substrate), Section B; assay type: biochemical
T1 construct: Recombinant E. coli or Baculovirus full-length NS3 was diluted to 3.33 μM with assay buffer; made in house; host or cells: E. coli or baculovirus (BV) system
In short: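 Kinetic fluorescence read (335 nm excitation, 495 nm emission, 30 min) of RETS1 cleavage by NS3/NS4A-2 complex, 2 nM E. coli or 3 nM baculovirus NS3, after 10 min room-temperature compound pre-incubation. Four-parameter-fit IC50s converted to Ki by Cheng–Prusoff, Ki=IC50/(1+[S]/Km).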

T1 sequence (P27958 1027-1657): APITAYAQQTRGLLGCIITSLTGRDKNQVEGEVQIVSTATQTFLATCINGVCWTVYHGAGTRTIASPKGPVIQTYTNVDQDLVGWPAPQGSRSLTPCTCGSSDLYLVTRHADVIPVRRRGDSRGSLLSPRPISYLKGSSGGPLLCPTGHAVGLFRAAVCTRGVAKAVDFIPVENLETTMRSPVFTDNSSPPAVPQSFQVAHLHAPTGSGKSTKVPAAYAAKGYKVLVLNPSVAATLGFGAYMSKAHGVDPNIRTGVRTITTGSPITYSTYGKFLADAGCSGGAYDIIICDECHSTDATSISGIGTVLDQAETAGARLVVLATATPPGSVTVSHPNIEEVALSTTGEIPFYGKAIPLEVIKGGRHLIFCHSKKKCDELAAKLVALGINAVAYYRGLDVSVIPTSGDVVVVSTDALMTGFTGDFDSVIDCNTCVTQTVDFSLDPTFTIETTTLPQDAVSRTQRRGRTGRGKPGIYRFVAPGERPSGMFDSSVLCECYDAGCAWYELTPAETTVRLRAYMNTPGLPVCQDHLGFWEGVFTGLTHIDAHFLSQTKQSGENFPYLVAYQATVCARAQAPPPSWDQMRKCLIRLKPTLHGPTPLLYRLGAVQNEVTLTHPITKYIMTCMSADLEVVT

CC(C)(C)OC(=O)N[C@H]1CCCCC/C=C\[C@@H]2C[C@@]2(C(=O)NS(=O)(=O)c2cc(C(=O)O)c(Cl)cc2F)NC(=O)[C@@H]2C[C@@H](OC(=O)N3Cc4ccccc4C3)CN2C1=O [AR00365426, (1S,4R,6S,14S,18R)-1,3-Dihydro-isoindole-2-carboxylic acid 14-tert-butoxycarbonylamino-4-(5-carboxy-4-chloro-2-fluoro-benzenesulfonylaminocarbonyl)-2,15-dioxo-3,16-diaza-tricyclo[14.3.0.0^4,6]nonadec-7-en-18-yl ester]
EC50 ([1]; GS4.3 cells, 72 h incubation): < 10000 nM | IC50 ([2]; read-out: NS3-NS4A IC50): < 100 nM

CC(C)(C)OC(=O)N[C@H]1CCCCC/C=C\[C@@H]2C[C@@]2(C(=O)NS(=O)(=O)c2ccccc2)NC(=O)[C@@H]2C[C@@H](OC(=O)N3Cc4ccccc4C3)CN2C1=O [AR00333802, (1S,4R,6S,14S,18R)-1,3-Dihydro-isoindole-2-carboxylic acid 4-benzenesulfonylaminocarbonyl-14-tert-butoxycarbonylamino-2,15-dioxo-3,16-diaza-tricyclo[14.3.0.0^4,6]nonadec-7-en-18-yl ester]
EC50 ([1]; GS4.3 cells, 72 h incubation): < 100 nM | IC50 ([2]; read-out: NS3-NS4A IC50): < 100 nM

CC(C)(C)OC(=O)N[C@H]1CCCCC/C=C\[C@@H]2C[C@@]2(C(=O)O)NC(=O)[C@@H]2C[C@@H](OC(=O)N3Cc4ccccc4C4(CCC4)C3)CN2C1=O [AR00304065, (1S,4R,6S,14S,18R)-14-tert-Butoxycarbonylamino-18-(4,4-spirocyclobutyl-3,4-dihydro-1H-isoquinoline-2-carbonyloxy)-2,15-dioxo-3,16-diaza-tricyclo[14.3.0.0^4,6]nonadec-7-ene-4-carboxylic acid]
EC50 ([1]; GS4.3 cells, 72 h incubation): < 10000 nM | IC50 ([2]; read-out: NS3-NS4A IC50): < 1000 nM

CN(C)CCOc1ccc2c(c1)CN(C(=O)O[C@@H]1C[C@H]3C(=O)N[C@]4(C(=O)NS(=O)(=O)C5CC5)C[C@H]4/C=C\CCCCC[C@H](NC(=O)OC(C)(C)C)C(=O)N3C1)C2 [AR00345095, (1S,4R,6S,14S,18R)-5-(2-Dimethylamino-ethoxy)-1,3-dihydro-isoindole-2-carboxylic acid 14-tert-butoxycarbonylamino-4-cyclopropanesulfonylaminocarbonyl-2,15-dioxo-3,16-diaza-tricyclo[14.3.0.0^4,6]nonadec-7-en-18-yl ester]
EC50 ([1]; GS4.3 cells, 72 h incubation): < 100 nM | IC50 ([2]; read-out: NS3-NS4A IC50): < 100 nM

COC(=O)c1ccc2c(c1)CN(C(=O)O[C@@H]1C[C@H]3C(=O)N[C@]4(C(=O)NS(=O)(=O)C5CC5)C[C@H]4/C=C\CCCCC[C@H](NC(=O)OC(C)(C)C)C(=O)N3C1)C2 [AR00365083, (1S,4R,6S,14S,18R)-1,3-Dihydro-isoindole-2,5-dicarboxylic acid 2-(14-tert-butoxycarbonylamino-4-cyclopropanesulfonylaminocarbonyl-2,15-dioxo-3,16-diaza-tricyclo[14.3.0.0^4,6]nonadec-7-en-18-yl) ester 5-methyl ester]
EC50 ([1]; GS4.3 cells, 72 h incubation): < 100 nM | IC50 ([2]; read-out: NS3-NS4A IC50): < 100 nM

CC(C)(C)OC(=O)N[C@H]1CCCCC/C=C\[C@@H]2C[C@@]2(C(=O)NS(=O)(=O)C2CC2)NC(=O)[C@@H]2C[C@@H](NC(=O)N3CCc4ccccc4C3)CN2C1=O [AR00287266, (is, 4R, 6S, 14S, 18R)-{4-Cyclopropanesulfonylaminocarbonyl-18-[(3,4-dihydro-1H-isoquinoline-2-carbonyl)-amino]-2,15-dioxo-3,16-diaza-tricyclo[14.3.0.0^4,6]nonadec-7-en-14-yl}-carbamic acid tert-butyl ester]
EC50 ([1]; GS4.3 cells, 72 h incubation): < 1000 nM | IC50 ([2]; read-out: NS3-NS4A IC50): < 100 nM

CN(C)c1cccc2c1CCN(C(=O)O[C@@H]1C[C@H]3C(=O)N[C@]4(C(=O)O)C[C@H]4/C=C\CCCCC[C@H](NC(=O)OC(C)(C)C)C(=O)N3C1)C2 [AR00315997, (1S,4R,6S,14S,18R)-14-tert-Butoxycarbonylamino-18-(5-dimethylamino-3,4-dihydro-1H-isoquinoline-2-carbonyloxy)-2,15-dioxo-3,16-diaza-tricyclo[14.3.0.0^4,6]nonadec-7-ene-4-carboxylic acid]
EC50 ([1]; GS4.3 cells, 72 h incubation): < 10000 nM | IC50 ([2]; read-out: NS3-NS4A IC50): < 1000 nM

CC(C)(C)OC(=O)N[C@H]1CCCCC/C=C\[C@@H]2C[C@@]2(C(=O)NS(=O)(=O)c2ccccc2)NC(=O)[C@@H]2C[C@@H](OC(=O)N3CCc4ccccc4C3)CN2C1=O [AR00320547, (1S,4R,6S,14S,18R)-3,4-Dihydro-1H-isoquinoline-2-carboxylic acid 4-benzenesulfonylaminocarbonyl-14-tert-butoxycarbonylamino-2,15-dioxo-3,16-diaza-tricyclo[14.3.0.0^4,6]nonadec-7-en-18-yl ester]
EC50 ([1]; GS4.3 cells, 72 h incubation): < 100 nM | IC50 ([2]; read-out: NS3-NS4A IC50): < 100 nM

CC(C)[C@@H](NC(=O)c1cccnc1)C(=O)N[C@H]1CCCCC/C=C\[C@@H]2C[C@@]2(C(=O)O)NC(=O)[C@@H]2C[C@@H](OC(=O)N3CCc4ccccc4C3)CN2C1=O [AR00304073, (1S,4R,6S,14S,18R)-18-(3,4-Dihydro-1H-isoquinoline-2-carbonyloxy)-14-{3-methyl-2-[(pyridine-3-carbonyl)-amino]-butyrylamino}-2,15-dioxo-3,16-diaza-tricyclo[14.3.0.0^4,6]nonadec-7-ene-4-carboxylic acid]
EC50 ([1]; 72 h): < 10000 nM | IC50 [2]: < 1000 nM

CC(C)(C)OC(=O)N[C@H]1CCCCC/C=C\[C@@H]2C[C@@]2(C(=O)O)NC(=O)[C@@H]2C[C@@H](OC(=O)N3Cc4ccccc4C3)CN2C1=O [AR00291871, (1S,4R,6S,14S,18R)-14-tert-Butoxycarbonylamino-18-(1,3-dihydro-isoindole-2-carbonyloxy)-2,15-dioxo-3,16-diaza-tricyclo[14.3.0.0^4,6]nonadec-7-ene-4-carboxylic acid]
EC50 ([1]; GS4.3 cells, 72 h incubation): < 1000 nM | IC50 ([2]; read-out: NS3-NS4A IC50): < 100 nM

O=C(N[C@H]1CCCCC/C=C\[C@@H]2C[C@@]2(C(=O)NS(=O)(=O)C2CC2)NC(=O)C2C[C@@H](OC(=O)N3CCc4ccccc4C3CN3CCCCC3)CN2C1=O)OC1CCCC1 (stereo partly drawn) [AR00320506, (1S,4R,6S,14S,18R)-1-Piperidin-1-ylmethyl-3,4-dihydro-1H-isoquinoline-2-carboxylic acid 14-cyclopentyloxycarbonylamino-4-cyclopropanesulfonylaminocarbonyl-2,15-dioxo-3,16-diaza-tricyclo[14.3.0.0^4,6]nonadec-7-en-18-yl ester]
EC50 ([1]; GS4.3 cells, 72 h incubation): < 100 nM | IC50 ([2]; read-out: NS3-NS4A IC50): < 100 nM

O=C(N[C@H]1CCCCC/C=C\[C@@H]2C[C@@]2(C(=O)O)NC(=O)[C@@H]2C[C@@H](OC(=O)N3CCc4ccccc4C3)CN2C1=O)OCCF [AR00304125, (1S,4R,6S,14S,18R)-18-(3,4-Dihydro-1H-isoquinoline-2-carbonyloxy)-14-(2-fluoro-ethoxycarbonylamino)-2,15-dioxo-3,16-diaza-tricyclo[14.3.0.0^4,6]nonadec-7-ene-4-carboxylic acid]
EC50 ([1]; GS4.3 cells, 72 h incubation): < 10000 nM | IC50 ([2]; read-out: NS3-NS4A IC50): < 1000 nM

O=C(NC1CCCC1)N[C@H]1CCCCC/C=C\[C@@H]2C[C@@]2(C(=O)NS(=O)(=O)C2CC2)NC(=O)[C@@H]2C[C@@H](OC(=O)N3Cc4ccccc4C3)CN2C1=O [AR00304082, (1S,4R,6S,14S,18R)-1,3-Dihydro-isoindole-2-carboxylic acid 14-(3-cyclopentyl-ureido)-4-cyclopropanesulfonylaminocarbonyl-2,15-dioxo-3,16-diaza-tricyclo[14.3.0.0^4,6]nonadec-7-en-18-yl ester]
EC50 ([1]; GS4.3 cells, 72 h incubation): < 100 nM | IC50 ([2]; read-out: NS3-NS4A IC50): < 100 nM
